Experimental data: ChEMBL document CHEMBL1134073 (Bioorg Med Chem Lett, 2001)

Assays:
[1] = target: Human immunodeficiency virus type 1 protease (Human immunodeficiency virus 1, UniProt Q72874); assay: Inhibitory activity against HIV protease
MT4 = assay: Antiviral activity against HIV in presence of 50% human serum in MT-4 cell was determined; format: functional, cell-based

Row | Structure (SMILES) | Ki [1] | EC50 (MT4)
1 | Cc1cccc(C)c1OCC(=O)N[C@@H](Cc1ccccc1)[C@@H](O)C[C@H](Cc1ccccc1)NC(=O)[C@H](C(C)C)N1CCC(=O)NC1=O | 0.0007 nM | 1410 nM
2 | Cc1cccc(C)c1OCC(=O)N[C@@H](Cc1ccccc1)[C@@H](O)C[C@H](Cc1ccccc1)NC(=O)[C@H](C(C)C)N1CCC(O)NC1=O (stereo not given in full) | 0.0012 nM | 2310 nM
3 | Cc1cccc(C)c1OCC(=O)N[C@@H](Cc1ccccc1)[C@@H](O)C[C@H](Cc1ccccc1)NC(=O)[C@H](C(C)C)N1CCCNC1=O [LOPINAVIR] |  | 104 nM
